Experimental data: patent publication US8951527B2, “Radioprotectants targeting thrombospondin-1 and CD47” (The United States of America, as represented by the …, priority 2008, dated 2015)

What was measured:
B16F10 melanoma tumors = test: Syngeneic B16F10 melanoma tumor growth after irradiation; type: in vivo, mouse; details: B16F10 in C57BL/6 mice
Experimental: FIG. 19. CD47 suppression enhances re-growth delay in irradiated syngeneic B16 melanoma and squamous cell carcinoma tumors but increases radioresistance of B16 cells in vitro. C57BL/6 mice were injected with 1×10^6 B16 mouse melanoma cells into their right hindlimbs. Five days later, the mice were randomized into 4 groups (12 mice in each group) where they either received injections of CD47 morpholino (10 μM) in sterile PBS, PBS, or no injection. The two groups receiving injections were then subjected to radiation (10 Gy) to the effected hindlimb 48 hours later. The other two groups served as controls and consisted of tumor alone or tumor subjected to only the morpholino. Tumors were followed post-radiation for 30 days, measuring their volume every 6 days (FIG. 19A). Results are presented as the mean±SD of 12 mice in each treatment group and are representative of 3 independent studies. These same experimental treatment conditions were tested using another syngeneic tumor cell line (SCC VII) in C3H mice and followed for 15 days where similar results were found after injecting 1.5×10^5 cells (FIG. 19B). Results are presented as the mean±SD of 10 mice (C3II) in each treatment group and are representative of 3 independent studies. B16 mouse melanoma cells were plated on 96-well plates in standard growth medium. Cells were treated with peptide 7N3 or CD47 morpholino and received a radiation dose of 10 Gy (FIG. 19C; *p<0.05, #p<0.01). Cell (mitochondrial) viability was measured 48 hours post radiation using the MTT assay.
Tumor Establishment and Irradiation. C57 B16 mice were injected in the right hindlimb with 1×10^6 B16F10 melanoma cells, and tumors were allowed to establish for 1 week. After tumor incorporation, the hind limbs were treated with either the CD47 morpholino or sterile phosphate buffered saline (PBS). Forty-eight hours later, all mice were subjected to right hind limb irradiation (10 Gy). The mice were observed and tumor size determined twice a week by the same individual until lesion size necessitated animal euthanasia. […]

C57BL/6 wild type mice = test: Hindlimb irradiation (25 Gy), skin reaction / tissue necrosis grading and histology; type: in vivo, mouse; details: for skin reaction / tissue damage of irradiated hindlimb: 10 μM in 750 μl PBS local-regional
Experimental: FIG. 16. CD47 suppression using an antisense morpholino minimizes tissue damage from radiation injury. Age and sex matched C57BL16 wild type mice underwent a one-time treatment of the right hindlimb with either a murine specific CD47 morpholino oligonucleotide (10 μM in 750 μl PBS) or 750 μl of PBS injected local-regionally to the muscle and soft tissues. […] At the end of 8 weeks, there was a considerable amount of alopecia, dry desquamation and early signs of fibrotic contractures within the irradiated hind limbs of mice receiving only PBS. […] The tissue necrosis grading scores for 8 animals are presented as mean±SD (FIG. 16B) and show a similar trend throughout the 8-week observation period.
Skin reaction: Skin reaction following hind limb irradiation was quantified every week following treatment for 8 weeks using a previously described grading system (Flanders et al., Am J Pathol 163:2247-2257, 2003). The grading system consisted of 5 categories: normal, hair loss, erythema, dry desquamation and moist desquamation/ulceration.
Irradiation of mice: Age and sex matched wild type mice underwent local irradiation to the right hindlimb as described in Example 1. Forty-eight hours prior to irradiation, animals received the CD47 morpholino (SEQ ID NO: 4), a control morpholino (SEQ ID NO: 5) (both at 10 μM in […] PBS via intramuscular injection), vehicle, or no treatment to the hind limb. Under 1% isoflurane inhalation anesthesia, the animals were placed in customized Lucite jigs that allow for immobilization and selective irradiation of the right hindlimb. A single radiation dose of 25 Gy was delivered by a Therapax® DXT300 X-ray irradiator (Pantak, Inc., East Haven, Conn.) using 2.0-mm A1 filtration (300 kVp) at a dose rate of 2.53 Gy/min. Care was taken to avoid irradiation of other body parts by using lead shields specifically designed as a part of the jigs. After irradiation, the animals were placed in cages as indicated above and observed weekly. Skin reaction after hind limb irradiation was quantified every week after treatment for 8 weeks using a previously described grading system (Flanders et al., Am J. Pathol 163:2247-2257, 2003). Briefly, tissue necrosis grading system consists of 5 categories: normal, hair loss, erythema, dry desquamation, and moist desquamation/ulceration.
Age and sex matched C57BL16 wild type mice underwent a one-time treatment of the right hindlimb with the CD47 antisense morpholino oligonucleotide (10 μM in 750 μl PBS), a mismatched control morpholino, or vehicle (PBS) injected local-regionally to the muscle and soft tissues.

CGTCACAGGCAGGACCCACTGCCCA (all phosphorodiamidate morpholino (PMO)) [CD47 morpholino, CD47 targeting morpholino oligonucleotide]
tumor ablation / re-growth delay with irradiation (B16F10 melanoma tumors; morpholino 48 hours before 10 Gy): dramatically increased tumor ablation | tumor growth without irradiation (B16F10 melanoma tumors; morpholino alone): only slightly delayed tumor growth | normal tissue injury in tumor-bearing irradiated limbs (B16F10 melanoma tumors; morpholino then 10 Gy): minimal alopecia and no other morphologic or histologic evidence of tissue injury | skin reaction / tissue damage of irradiated hindlimb (C57BL/6 wild type mice; 48 hours before 25 Gy, 8 weeks): little to no alopecia, ulceration, or desquamation | skin reaction / tissue damage of irradiated hindlimb (C57BL/6 wild type mice; 48 hours before 25 Gy, 8 weeks, listed as CD47 targeting morpholino): minimal to no alopecia, ulceration, and desquamation | H&E of treated hindlimb skeletal muscle (C57BL/6 wild type mice; 25 Gy, results not shown): muscle cell survival and hypertrophy | hindlimb contracture due to fibrosis (C57BL/6 wild type mice; 48 hours before 25 Gy, 8 weeks): minimal contracture due to fibrosis
